# Values joined by “and” are separate entries in the source; they are usually repeats but may differ in a detail not shown here. Equal entries are not always repeated. Where two headings read alike, the source gives them in different places.
# Tests used:
# CgBdf1 BD2 = CgBdf1 BD2 (Candida glabrata, UniProt Q6FWV7); assay: biochemical; format: binding, C. glabrata
# human Brd4 BD2 = molecular target: T1, human Brd4 BD2 (Homo sapiens, UniProt O60885); assay: HTRF assay, inhibition of H4ac4 peptide binding; settings: Brd4 BD2
# T1 construct: GST‐tagged BD2 (residues 349–460) from human Brd4 (UniProt ID O60885); purchased Reaction Biology Corp
# C. auris Bdf1 BD1 = C. auris Bdf1 BD1 (Candidozyma auris (Candida auris), UniProt A0AAW0VEM6); assay: HTRF assay, inhibition of H4ac4 peptide binding
# Chain of C. auris Bdf1 BD1 (A0AAW0VEM6 entry or part of it): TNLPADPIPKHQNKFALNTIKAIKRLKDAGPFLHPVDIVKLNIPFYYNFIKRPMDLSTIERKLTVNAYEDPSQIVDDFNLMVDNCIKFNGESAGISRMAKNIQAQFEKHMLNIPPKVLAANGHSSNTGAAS
# Bmh1/Bmh2 = assay: NanoBiT assay, control pair; format: cell-based, S. cerevisiae; parameters: Normalized nanoBiT signal: unit of the concentration uncertain
# Procedure: Yeast strains were distributed in 96‐well microplates containing SC(MSG)‐U medium (SC‐U medium with 0.1% monosodium glutamate instead of ammonium sulfate as a nitrogen source) and grown at 30 °C. 40 µL of exponentially growing cells were transferred in white 96‐well half‐area microplates (ProxiPlate Plus, Greiner Bio‐One) previously filled with 40 µL per well of SC(MSG) containing 100 µM furimazine. The microplates were then incubated for 10 min in the dark before the luminescence signals were recorded using a microplate reader (Ensight, PerkinElmer). Luminescence measurements were performed for 1 s per well at a distance of 0.1 mm between the plate and the detector. The luminescence values were normalized with the optical density (OD600) of the corresponding cultures. For NanoBiT assays with BET inhibitors, yeast cultures were grown overnight at 30 °C in SC(MSG) medium in the presence of serial dilutions of 24c and I‐BET726. Overnight cultures were diluted 5 fold in SC(MSG) and incubated for 1 h before luminescence was recorded as previously indicated. Luminescence values for each condition were normalized using the average of the luminescence recorded for the Bdf1/Swc4 and Bmh1/Bmh2 controls.
# C. auris Bdf1 BD2 = C. auris Bdf1 BD2 (Candidozyma auris (Candida auris), UniProt A0AAW0VEM6); assay: HTRF assay, inhibition of H4ac4 peptide binding
# Chain of C. auris Bdf1 BD2 (A0AAW0VEM6 entry or part of it): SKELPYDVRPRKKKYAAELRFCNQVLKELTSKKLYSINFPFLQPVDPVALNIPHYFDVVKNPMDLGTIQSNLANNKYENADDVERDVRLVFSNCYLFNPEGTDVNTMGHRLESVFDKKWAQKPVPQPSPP
# [1] = system: C. glabrata strains expressing WT and mutant Bdf1; assay: Growth inhibition in liquid media, C. glabrata lab strains; settings: for %Growth: WT BDF1-flag
# Procedure: Growth on Liquid Media with C. glabrata Lab Strains: Cells were grown at 30 °C in SC+M+C‐U medium (SC medium with 5 mM methionine, 0.25 mM cysteine, without uracil) to an OD600 of 0.5–0.8. […] Plates were incubated at 30 °C and OD600 was measured using a Multiskan FC Microplate Photometer (Thermo Fisher).
# [2] = system: humanized C. albicans strains (both Bdf1 BDs replaced by Brd4 BDs); assay: Growth in liquid media, humanized C. albicans; format: cell-based; settings: Candida albicans, read-out: EC50 (μM), C. albicans (hum)
# Procedure: Strains were presented in Table S8 (Supporting Information). Cells from a single colony were diluted in 0.85% NaCl before being counted using a Neubauer chamber. They were diluted to a final concentration of 6500 cells mL^−1 per well for all clinical strains of C. albicans and C. glabrata; 65 000 cells mL^−1 per well for C. auris; 13 500 cells mL^−1 per well for C. parapsilosis; 3375 cells mL^−1 per well for C. krusei and 1687.5 cells mL^−1 per well for C. tropicalis, in a sterile 96‐well plate. Cells were then grown in SC medium with or without chemical compounds at 30 °C with regular shaking. The significance of growth defects was assessed using Holm‐Sidak method by GraphPad Prism 10.
# [3] = read-out: HTRF signal, normalized (Figure 5A data)
# Chain of CgBdf1 BD2 (Q6FWV7 entry or part of it): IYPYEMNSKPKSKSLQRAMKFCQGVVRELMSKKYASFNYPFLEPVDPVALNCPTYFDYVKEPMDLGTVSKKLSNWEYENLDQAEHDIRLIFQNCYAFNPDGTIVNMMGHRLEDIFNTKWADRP
compound,measurement,setting,value
CC(=O)N1c2ccc(-c3ccc(C(=O)O)cc3)cc2C(Nc2ccc(Cl)cc2)CC1C (stereo not drawn) [I-BET726],activity at 0.0021 µM,"CgBdf1 BD2; 24 h, CgBD2, 2.10 nM, read-out: HTRF signal, normalized (Figure 5A data)",98.3%
same,activity at 0.01311 µM,"CgBdf1 BD2; 24 h, CgBD2, 13.11 nM, read-out: HTRF signal, normalized (Figure 5A data)",91.8%
same,activity at 0.03277 µM,"CgBdf1 BD2; 24 h, CgBD2, 32.77 nM, read-out: HTRF signal, normalized (Figure 5A data)",80.2%
same,activity at 0.08192 µM,"CgBdf1 BD2; 24 h, CgBD2, 81.92 nM, read-out: HTRF signal, normalized (Figure 5A data)",54.9%
same,activity at 0.2048 µM,"CgBdf1 BD2; 24 h, CgBD2, 204.8 nM, read-out: HTRF signal, normalized (Figure 5A data)",20.4%
same,activity at 0.512 µM,"CgBdf1 BD2; 24 h, CgBD2, 512 nM, read-out: HTRF signal, normalized (Figure 5A data)",9.19%
same,activity at 1.28 µM,"CgBdf1 BD2; 24 h, CgBD2, 1280 nM, read-out: HTRF signal, normalized (Figure 5A data)",5.95%
same,activity at 0.00524 µM,"CgBdf1 BD2; 24 h, read-out: HTRF signal, normalized (Figure 5A data)",93.2%
same,IC50,"CgBdf1 BD2; Fig 5A, four replicates, read-out: IC50 (μM) BD2, C. gla. Bdf1",0.085 ± 0.012 µM
same,"HTRF signal, normalized (Figure 5A data)",human Brd4 BD2; 0.0537 nM,102.97 and 106.08 and 108.84 and 105.09
same,"HTRF signal, normalized (Figure 5A data)",human Brd4 BD2; 0.13 nM,103.72 and 102.37 and 103.68 and 103.57
same,"HTRF signal, normalized (Figure 5A data)",human Brd4 BD2; 0.34 nM,94.46 and 91.58 and 95.80 and 94.95
same,"HTRF signal, normalized (Figure 5A data)",human Brd4 BD2; 0.84 nM,79.67 and 69.64 and 75.99 and 78.48
same,"HTRF signal, normalized (Figure 5A data)",human Brd4 BD2; 2.10 nM,45.84 and 41.04 and 44.03 and 46.83
same,"HTRF signal, normalized (Figure 5A data)",human Brd4 BD2; 5.24 nM,8.26 and 9.91 and 8.75 and 10.80
same,"HTRF signal, normalized (Figure 5A data)",human Brd4 BD2; 32.77 nM,3.03 and 2.91 and 2.46 and 2.11
same,"HTRF signal, normalized (Figure 5A data)",human Brd4 BD2; 81.92 nM,2.74 and 1.64 and 1.67 and 2.48
same,"HTRF signal, normalized (Figure 5A data)",human Brd4 BD2; 512 nM,2.01 and 2.50 and 2.14 and 2.65
same,remaining activity at 0.0021 µM,"C. auris Bdf1 BD1; CauBD1, 2.10 nM, read-out: HTRF signal, normalized (Figure 5A data)",105%
same,remaining activity at 0.01311 µM,"C. auris Bdf1 BD1; CauBD1, 13.11 nM, read-out: HTRF signal, normalized (Figure 5A data)",103%
same,remaining activity at 0.03277 µM,"C. auris Bdf1 BD1; CauBD1, 32.77 nM, read-out: HTRF signal, normalized (Figure 5A data)",106%
same,remaining activity at 0.2048 µM,"C. auris Bdf1 BD1; CauBD1, 204.8 nM, read-out: HTRF signal, normalized (Figure 5A data)",107%
same,remaining activity at 1.28 µM,"C. auris Bdf1 BD1; CauBD1, 1280 nM, read-out: HTRF signal, normalized (Figure 5A data)",100%
same,remaining activity at 3.2 µM,"C. auris Bdf1 BD1; CauBD1, 3200 nM, read-out: HTRF signal, normalized (Figure 5A data)",74.9%
same,remaining activity at 8 µM,"C. auris Bdf1 BD1; CauBD1, 8000 nM, read-out: HTRF signal, normalized (Figure 5A data)",34.7%
same,IC50,"C. auris Bdf1 BD1; Fig 5A, four replicates, read-out: IC50 (μM) BD1, C. aur. Bdf1",14.7 ± 0.1 µM
same,remaining activity at 0.00524 µM,C. auris Bdf1 BD1; [3],103%
same,remaining activity at 0.512 µM,C. auris Bdf1 BD1; [3],103%
same,Normalized nanoBiT signal,Bmh1/Bmh2,108% and 107% and 96% and 97%
same,Normalized nanoBiT signal,"Bmh1/Bmh2; Bmh1-LgBiT, Bmh2-SmBiT, 0.02441 (unit uncertain), Fig 4C",104% and 103% and 105% and 97%
same,Normalized nanoBiT signal,"Bmh1/Bmh2; Bmh1-LgBiT, Bmh2-SmBiT, 0.09766 (unit uncertain), Fig 4C",105% and 106% and 103% and 100%
same,Normalized nanoBiT signal,"Bmh1/Bmh2; Bmh1-LgBiT, Bmh2-SmBiT, 0.19531 (unit uncertain), Fig 4C",105% and 94% and 98%
same,Normalized nanoBiT signal,"Bmh1/Bmh2; Bmh1-LgBiT, Bmh2-SmBiT, 0.39063 (unit uncertain), Fig 4C",110% and 103% and 98% and 96%
same,Normalized nanoBiT signal,"Bmh1/Bmh2; Bmh1-LgBiT, Bmh2-SmBiT, 0.78125 (unit uncertain), Fig 4C",109% and 110% and 93% and 102%
same,Normalized nanoBiT signal,"Bmh1/Bmh2; Bmh1-LgBiT, Bmh2-SmBiT, 1.56250 (unit uncertain), Fig 4C",115% and 111% and 95% and 99%
same,Normalized nanoBiT signal,"Bmh1/Bmh2; Bmh1-LgBiT, Bmh2-SmBiT, 3.12500 (unit uncertain), Fig 4C",112% and 118% and 104% and 101%
same,"inhibition of NanoBiT signal, Bmh1/Bmh2",Bmh1/Bmh2; unrelated control pair,not observed
same,remaining activity at 0.0021 µM,"C. auris Bdf1 BD2; CauBD2, 2.10 nM, read-out: HTRF signal, normalized (Figure 5A data)",97.4%
same,remaining activity at 0.01311 µM,"C. auris Bdf1 BD2; CauBD2, 13.11 nM, read-out: HTRF signal, normalized (Figure 5A data)",85.4%
same,remaining activity at 0.03277 µM,"C. auris Bdf1 BD2; CauBD2, 32.77 nM, read-out: HTRF signal, normalized (Figure 5A data)",75%
same,remaining activity at 0.08192 µM,"C. auris Bdf1 BD2; CauBD2, 81.92 nM, read-out: HTRF signal, normalized (Figure 5A data)",52.6%
same,remaining activity at 0.2048 µM,"C. auris Bdf1 BD2; CauBD2, 204.8 nM, read-out: HTRF signal, normalized (Figure 5A data)",31%
same,remaining activity at 0.512 µM,"C. auris Bdf1 BD2; CauBD2, 512 nM, read-out: HTRF signal, normalized (Figure 5A data)",12.9%
same,remaining activity at 3.2 µM,"C. auris Bdf1 BD2; CauBD2, 3200 nM, read-out: HTRF signal, normalized (Figure 5A data)",5.12%
same,remaining activity at 8 µM,"C. auris Bdf1 BD2; CauBD2, 8000 nM, read-out: HTRF signal, normalized (Figure 5A data)",5.06%
same,IC50,"C. auris Bdf1 BD2; Fig 5A, four replicates, read-out: IC50 (μM) BD2, C. aur. Bdf1",0.23 ± 0.02 µM
same,remaining activity at 0.00524 µM,C. auris Bdf1 BD2; [3],90.6%
same,remaining activity at 8 µM,C. auris Bdf1 BD2; [3],2.46%
same,%Growth,"[1]; Fig 3E, 50 µM, Exp 1-3",24% and 29% and 27%
same,%Growth,"[1]; Fig 3F, 0.0412 µM",86.79% and 92.92% and 93.05%
same,%Growth,"[1]; Fig 3F, 0.1235 µM",78.65% and 90.9% and 90.48%
same,%Growth,"[1]; Fig 3F, 0.3704 µM",70.78% and 76.63% and 84.08%
same,%Growth,"[1]; Fig 3F, 1.1111 µM",65.69% and 73.22% and 70.81%
same,%Growth,"[1]; Fig 3F, 3.3333 µM",37.23% and 49.84% and 57.55%
same,%Growth,"[1]; Fig 3F, 10 µM",20.2% and 22.05% and 23.51%
same,EC50,"[1]; Nakaseomyces glabratus, read-out: EC50 (μM) growth inhibition, Fig 3F, strain BDF1-FLAG (WT Bdf1)",3.24 ± 0.75 µM
same,EC50,"[1]; Nakaseomyces glabratus, read-out: EC50 (μM) growth inhibition, strain bdf1-Y166F (active BD: BD2)",1.98 ± 0.36 µM
same,EC50,"[1]; Nakaseomyces glabratus, read-out: EC50 (μM) growth inhibition, strain bdf1-Y343F (active BD: BD1)",~25 µM
same,EC50,"[1]; Nakaseomyces glabratus, read-out: EC50 (μM) growth inhibition, strain bdf1-bd1Δ (active BD: BD2)",1.17 ± 0.1 µM
same,EC50,"[1]; Nakaseomyces glabratus, read-out: EC50 (μM) growth inhibition, strain bdf1-bd2Δ (active BD: BD1)",13.7 ± 4.9 µM
same,Growth (%),"[1]; WT BDF1, 20 µM, Fig 5B",34%
same,EC50,"[1]; read-out: EC50 (μM) growth inhibition, Fig 3F, strain BDF1-FLAG (WT Bdf1)",3 µM and 3.2 µM
same,EC50,[2],0.035 ± 0.003 µM

# From PMC11904993, “Humanized Candida and NanoBiT Assays Expedite Discovery of Bdf1 Bromodomain Inhibitors With Antifungal Potential” (Advanced Science, 2025)
